# Molecular target: T1, Caspase-1 (Homo sapiens, UniProt P29466)
# T1 sequence (P29466 whole entry): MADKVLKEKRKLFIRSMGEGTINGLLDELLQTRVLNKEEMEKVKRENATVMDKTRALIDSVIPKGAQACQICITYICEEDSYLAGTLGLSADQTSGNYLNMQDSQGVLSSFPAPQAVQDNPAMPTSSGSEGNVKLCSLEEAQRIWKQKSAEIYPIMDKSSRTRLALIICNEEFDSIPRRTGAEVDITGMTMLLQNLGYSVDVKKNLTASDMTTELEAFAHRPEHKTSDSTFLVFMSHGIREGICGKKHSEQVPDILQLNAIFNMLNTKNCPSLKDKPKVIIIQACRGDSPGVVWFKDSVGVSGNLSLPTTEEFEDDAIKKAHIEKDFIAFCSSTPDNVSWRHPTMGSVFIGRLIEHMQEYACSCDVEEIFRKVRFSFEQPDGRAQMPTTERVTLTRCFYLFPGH
# Assay: Caspase Inhibition Assay
# Conditions: pH 7; 37 °C
# Method: The substrate peptides terminating in AMC are processed by caspases with or without inhibitors, and the accumulation of AMC was assessed with a Cytofluor fluorescent plate reader at excitation and emission wavelengths of 380 and 460 nm. Compounds were tested, and full IC50 curves were run for all compounds expressing measurable inhibitory activity.
row,SMILES,Ki
1,CC(=O)N[C@@H](Cc1ccc(O)cc1)C(=O)N[C@H](C(=O)N[C@@H](C)C(=O)N[C@@H](CC(=O)O)C(=O)CCCCCc1ccccc1)C(C)C [(3S)-3-[(2S)-2-[(2S)-2-[(2S)-2-acetamido-3-(4-hydroxyphenyl)propanamido]-3-methylbutanamido]propanamido]-4-oxo-9-phenylnonanoic acid],0.011 µM
2,O=C(O)C[C@H](NS(=O)(=O)c1ccccc1)C(=O)CSCCCc1ccccc1 [(3S)-3-benzenesulfonamido-4-oxo-5-[(3-phenylpropyl)sulfanyl]pentanoic acid],24 µM
3,O=C(O)C[C@H](NS(=O)(=O)c1ccccc1)C(=O)CCCCCc1ccccc1 [(3S)-3-benzenesulfonamido-4-oxo-9-phenylnonanoic acid],24 µM
4,O=C[C@H](CC(=O)O)NS(=O)(=O)c1ccccc1 [(3S)-3-benzenesulfonamido-4-oxobutanoic acid],9.4 µM
5,Cc1cccc(-c2ccccc2S(=O)(=O)N[C@H](C=O)CC(=O)O)c1 [(3S)-3-{[2-(3-methylphenyl)benzene]sulfonamido}-4-oxobutanoic acid],3.1 µM
6,Cc1ccc(-c2ccccc2S(=O)(=O)N[C@H](C=O)CC(=O)O)cc1 [(3S)-3-{[2-(4-methylphenyl)benzene]sulfonamido}-4-oxobutanoic acid],7.2 µM
7,O=C[C@H](CC(=O)O)NS(=O)(=O)c1ccccc1-c1cccc2ccccc12 [(3S)-3-{[2-(naphthalen-1-yl)benzene]sulfonamido}-4-oxobutanoic acid],6.9 µM
8,Cc1ccccc1-c1ccccc1S(=O)(=O)N[C@H](C=O)CC(=O)O [(S)-3-(2-Methyl-biphenyl-2-sulfonylamino)-4-oxo-butyric acid],6.8 µM
9,Cc1cccc(S(=O)(=O)N[C@H](C=O)CC(=O)O)c1-c1ccccc1 [(S)-3-(6-Methyl-biphenyl-2-sulfonylamino)-4-oxo-butyric acid],1.9 µM
10,O=C(O)C[C@H](NC(=O)OCc1ccccc1)C(=O)CSCCCc1ccccc1 [(S)-3-Benzyloxycarbonylamino-4-oxo-5-(3-phenyl-propyl-sulfanyl)-pentanoic acid],25 µM
11,O=C(O)C[C@H](NC(=O)OCc1ccccc1)C(=O)CCCCCc1ccccc1 [(S)-3-Benzyloxycarbonylamino-4-oxo-9-phenyl-nonanoic acid],119 µM

# Source: BindingDB's records for doi:10.1016/s0968-0896(01)00250-4 (Pfizer, 2002)
